In brackets after ≈: the same amount, converted by molar mass.
What was measured:
Type in all cases: physicochemical
[1] = Stability Test 1 (80° C., lighting, 25° C./60% RH, 40° C./75% RH; HPLC)
Description: • Chromatographic conditions: • Chromatographic column: C18 column; • Running time: 60 min; • UV detector: 210 nm; • Flow rate: 1.0 mL/min; • Injection volume: 5 μL.
A certain amount of crystals and amorphous raw materials were weighed and placed in liquid phase vials, and a total of 5 parts were prepared. The 5 parts were respectively placed under 80° C. (opened), 25° C./60% RH (opened), and 40° C./75% RH (opened) and in a stable lighting chamber (closed, 5000±500 Lx), and the stability under lighting for 10 days, 80° C. 1 day, and the chemical stability under 25° C. and 60% RH and under 40° C. and 75% RH for 1 week were determined by liquid phase, and the XRPD of the solid was determined.

[2] = Solubility test of amorphous substance (room temperature); conditions: read-out: Roughly measured solubility
Description: About 10 mg of amorphous substance was weighted and placed into an 8 mL glass bottle, and a solvent was gradually added at room temperature. 5 μL of solvent was added each time until all the solids were dissolved, and if 8 mL of solvent was added and the solids were not dissolved, the solvent addition was stopped. Table 1. Test results of solubility of amorphous substance of compound represented by Formula (1) (room temperature)

[3] = Dynamic vapor sorption (DVS) hygroscopicity; conditions: for Hygroscopicity (DVS): 80% humidity, 25° C.; for Solid form by XRPD before and after DVS test: XRPD before vs after DVS
Description: The sample was analyzed through Intrinsic DVS ([…]). The amount of test sample was about 20-30 mg. The temperature of a test room was controlled between 25±1° C., the relative humidity increased from 0% to 90% and then decreased to 0% at a rate of 10%/h, and mass data was recorded every 20 s.
The DVS curve was acquired from DVS Intrinsic through an SMS (Surface Measurement Systems). The relative humidity at 25° C. was calibrated according to deliquescent points of LiCl, Mg(NO3)2 and KCl.

[4] = Accelerated stability test of crystal form (Example 3, 40±2° C./75±5% RH)
Description: The sample was taken at 0th, 1st and 3rd month for analysis, the stability of the samples was determined by liquid phase, and the crystal form was determined by XRPD.

[5] = Long-term stability test, packaged crystal form (Table 7); conditions: 30±2° C./65±5% RH
Excerpt: (§1) Packaging requirements: it is needed to simulate commercially available packaging for the stability sample, the two inner layers are inner flat-bottom bags made of pharmaceutical polyethylene, the first layer of inner bag is tied and sealed, the second layer of inner bag is subjected to heat sealing, an aluminum foil bag at an outer layer is subjected to heat sealing, a package of desiccant is placed between the aluminum foil bag and the second layer of inner bag, and the package is placed in a fiber can.
The sample was taken in the 0th, 3rd and 6th months. The test items, test methods and technical requirements are detailed in Table 7, and the test results are compared with those in the 0th month.

[6] = Solubility test of crystal form (room temperature); conditions: thermodynamic from solid
Description: About 5 mg of the crystal form sample was weighed and placed in an 8 mL glass bottle, and solvent was gradually added at room temperature. 10 μL of solvent was added each time until all solids were dissolved, and if 5 mL of solvent was added and the solids were not dissolved, the solvent addition was stopped.

[7] = Accelerated stability test, packaged crystal form (Table 6); conditions: 40 ± 2° C./75 ± 5% RH
Excerpt: as §1
The sample was taken in the 0th, 1st, 2nd, 3rd and 6th months. The test items, test methods and technical requirements are detailed in Table 6, and the test results are compared with those in the 0th month.

[8] = 25° C., 60% RH (opened), 1 week
[9] = 40° C., 75% RH (opened), 1 week
[10] = Lighting (closed, 5000±500 Lx), 10 Days

## CC(C)C(=O)O[C@@H](C)OC(=O)NC(C)(C)C(=O)N[C@H](COCc1ccccc1)C(=O)N1CCC2(CC1)CN(S(C)(=O)=O)c1ccccc12 [amorphous substance, (4R,11R)-7,7-dimethyl-4-(1-(methylsulfonyl)spiro[indoldoline-3,4′-piperidine]-1′-carbonyl)-6,9-dioxo-1-phenyl-2,10-dioxa-5,8-diazadodecane-11-ylisobutyrate]
[1]; [8]
  Degradation (%): 0.01%
  Purity (%): 99.27%
[1]; [9]
  Degradation (%): 0.03%
  Purity (%): 99.25%
[1]; 80° C. (opened), 1 Day
  Degradation (%): 0.18%
  Purity (%): 99.10%
[1]; Initial
  Purity (%): 99.28%
[1]; [10]
  Degradation (%): 1.02%
  Purity (%): 98.26%
[2]; organic solvent or mixture, thermodynamic from solid, 1,4-Dioxane
  solubility: > 760 mg/mL
[2]; organic solvent or mixture, thermodynamic from solid, Acetone
  solubility: > 520 mg/mL
[2]; organic solvent or mixture, thermodynamic from solid, Acetonitrile
  solubility: > 587 mg/mL
[2]; organic solvent or mixture, thermodynamic from solid, Anisole
  solubility: > 510 mg/mL
[2]; organic solvent or mixture, thermodynamic from solid, Butanone
  solubility: > 700 mg/mL
[2]; organic solvent or mixture, thermodynamic from solid, Cyclohexane
  solubility: < 1.2 mg/mL
[2]; organic solvent or mixture, thermodynamic from solid, Dichloromethane
  solubility: > 798 mg/mL
[2]; organic solvent or mixture, thermodynamic from solid, Dimethyl sulfoxide
  solubility: > 450 mg/mL
[2]; organic solvent or mixture, thermodynamic from solid, Ethanol
  solubility: > 480 mg/mL
[2]; organic solvent or mixture, thermodynamic from solid, Ethyl acetate
  solubility: > 600 mg/mL
[2]; organic solvent or mixture, thermodynamic from solid, Ethyl formate
  solubility: > 405 mg/mL
[2]; organic solvent or mixture, thermodynamic from solid, Isopropanol
  solubility: > 432 mg/mL
[2]; organic solvent or mixture, thermodynamic from solid, Isopropyl acetate
  solubility: > 643 mg/mL
[2]; organic solvent or mixture, thermodynamic from solid, Methanol
  solubility: > 725 mg/mL
[2]; organic solvent or mixture, thermodynamic from solid, Methyl isobutyl ketone
  solubility: > 400 mg/mL
[2]; organic solvent or mixture, thermodynamic from solid, Methyl tert-butyl ether
  solubility: > 70 mg/mL
[2]; organic solvent or mixture, thermodynamic from solid, N-heptane
  solubility: < 1.3 mg/mL
[2]; organic solvent or mixture, thermodynamic from solid, N-hexane
  solubility: < 1.2 mg/mL
[2]; organic solvent or mixture, thermodynamic from solid, N-propanol
  solubility: > 460 mg/mL
[2]; organic solvent or mixture, thermodynamic from solid, Tetrahydrofuran
  solubility: > 553 mg/mL
[2]; organic solvent or mixture, thermodynamic from solid, Toluene
  solubility: > 473 mg/mL
[2]; thermodynamic from solid, Water
  solubility: < 1.3 mg/mL
[3]
  Hygroscopicity (DVS): slightly hygroscopic
  Solid form by XRPD before and after DVS test: the morphology of the solid did not change

## CC(C)C(=O)O[C@@H](C)OC(=O)NC(C)(C)C(=O)N[C@H](COCc1ccccc1)C(=O)N1CCC2(CC1)CN(S(C)(=O)=O)c1ccccc12 [crystal form, (4R,11R)-7,7-dimethyl-4-(1-(methylsulfonyl)spiro[indoldoline-3,4′-piperidine]-1′-carbonyl)-6,9-dioxo-1-phenyl-2,10-dioxa-5,8-diazadodecane-11-ylisobutyrate]
[1]; [8]
  Degradation (%): 0.02%
  Purity (%): 99.69%
[1]; [9]
  Degradation (%): 0.1%
  Purity (%): 99.61%
[1]; 80° C. (opened), 1 Day
  Degradation (%): 0.12%
  Purity (%): 99.59%
[1]; Initial
  Purity (%): 99.71%
[1]; [10]
  Degradation (%): 0.35%
  Purity (%): 99.36%
[4]; 1 month
  Total impurities (%): 0.07%
[4]; 3 months
  Total impurities (%): 0.05%
[4]; Initial
  Total impurities (%): 0.07%
[5]; 0th month
  Characters: White powder
  Conclusion: Qualified
  Content (anhydrous and insoluble residue)/HPLC: 99.4%
  Isomer/HPLC: Chiral purity: 100.0%
  Isomer/HPLC: Isomer 1: 0.05%
  Moisture: 0.2%
  Related substance/HPLC: Impurity 3: <0.05%
  Related substance/HPLC: Other impurities: 0.05%
  Related substance/HPLC: Total impurities: 0.05%
[5]; 3rd month
  Characters: White powder
  Conclusion: Qualified
  Content (anhydrous and insoluble residue)/HPLC: 99.9%
  Isomer/HPLC: Chiral purity: 99.9%
  Isomer/HPLC: Isomer 1: 0.06%
  Moisture: 0.1%
  Related substance/HPLC: Impurity 3: <0.05%
  Related substance/HPLC: Other impurities: 0.05%
  Related substance/HPLC: Total impurities: 0.05%
[5]; 6 months vs 0th month
  Stability under the long-term condition: stable
[5]; 6th month
  Characters: White powder
  Conclusion: Qualified
  Content (anhydrous and insoluble residue)/HPLC: 99.6%
  Isomer/HPLC: Chiral purity: 100.0%
  Isomer/HPLC: Isomer 1: 0.03%
  Moisture: 0.1%
  Related substance/HPLC: Impurity 3: <0.05%
  Related substance/HPLC: Other impurities: <0.05%
  Related substance/HPLC: Total impurities: <0.05%
[5]; 6th month vs 0th month
  New impurity peak: ≤ 0.10%
[3]; 25° C./80% RH
  Moisture adsorption (DVS): 0.10%
[3]
  Hygroscopicity (DVS): almost had no hygroscopicity
  Solid form by XRPD before and after DVS test: the crystal form did not vary
[6]; organic solvent or mixture, Acetone
  solubility: ~117 mg/mL (≈ 170 mM)
[6]; organic solvent or mixture, Acetonitrile
  solubility: ~128 mg/mL (≈ 186 mM)
[6]; organic solvent or mixture, Dichloromethane
  solubility: ~251 mg/mL (≈ 365 mM)
[6]; organic solvent or mixture, Ethanol
  solubility: ~20.9 mg/mL (≈ 30.4 mM)
[6]; organic solvent or mixture, Ethyl acetate
  solubility: ~133 mg/mL (≈ 193 mM)
[6]; organic solvent or mixture, Methyl tert-butyl ether
  solubility: ~0.7 mg/mL (≈ 1.02 mM)
[6]; organic solvent or mixture, N-heptane
  solubility: < 0.6 mg/mL
[6]; organic solvent or mixture, Tetrahydrofuran
  solubility: ~232 mg/mL (≈ 339 mM)
[6]; organic solvent or mixture, Toluene
  solubility: ~13.2 mg/mL (≈ 19.2 mM)
[6]; Water
  solubility: < 0.7 mg/mL
[7]; 0th month
  Conclusion: Qualified
  Content (anhydrous and insoluble residue)/HPLC: 99.4%
  Isomer/HPLC: Chiral purity: 100.0%
  Isomer/HPLC: Isomer 1: 0.05%
  Moisture: 0.2%
  Related substances/HPLC: Impurity 3: <0.05%
  Related substances/HPLC: Other impurities: 0.05%
  Related substances/HPLC: Total impurities: 0.05%
[7]; 1st month
  Conclusion: Qualified
  Content (anhydrous and insoluble residue)/HPLC: 99.0%
  Isomer/HPLC: Chiral purity: 100.0%
  Isomer/HPLC: Isomer 1: 0.04%
  Moisture: 0.1%
  Related substances/HPLC: Impurity 3: <0.05%
  Related substances/HPLC: Other impurities: 0.05%
  Related substances/HPLC: Total impurities: 0.05%
[7]; 2nd month
  Conclusion: Qualified
  Content (anhydrous and insoluble residue)/HPLC: 98.9%
  Isomer/HPLC: Chiral purity: 100.0%
  Isomer/HPLC: Isomer 1: 0.04%
  Moisture: 0.2%
  Related substances/HPLC: Impurity 3: <0.05%
  Related substances/HPLC: Other impurities: 0.05%
  Related substances/HPLC: Total impurities: 0.05%
[7]; 3rd month
  Conclusion: Qualified
  Content (anhydrous and insoluble residue)/HPLC: 98.9%
  Isomer/HPLC: Chiral purity: 100.0%
  Isomer/HPLC: Isomer 1: 0.04%
  Moisture: 0.1%
  Related substances/HPLC: Impurity 3: <0.05%
  Related substances/HPLC: Other impurities: <0.05%
  Related substances/HPLC: Total impurities: <0.05%
[7]; 6 months vs 0th month
  Stability under the accelerated condition: stable
[7]; 6th month
  Conclusion: Qualified
  Content (anhydrous and insoluble residue)/HPLC: 99.5%
  Isomer/HPLC: Chiral purity: 100.0%
  Isomer/HPLC: Isomer 1: 0.04%
  Moisture: 0.1%
  Related substances/HPLC: Impurity 3: <0.05%
  Related substances/HPLC: Other impurities: <0.05%
  Related substances/HPLC: Total impurities: <0.05%
[7]; 6th month vs 0th month
  New impurity peak: ≤ 0.10%

From patent US20260226054A1, “CRYSTAL FORM AND AMORPHOUS SUBSTANCE OF INDOLINE SPIRO COMPOUND, AND PREPARATION METHOD THEREFOR AND USE THEREOF” (CHANGCHUN GENESCIENCE PHARMACEUTICAL CO., LTD., priority 2022, published 2026)
